Measurements as given in patent publication US6737383B1, “Herbicidal oxadiazolidines” (priority 1999, dated 2004).

What was measured:
[1] = system: bedstraw; experiment: Test B pre/postemergence bedstraw; type: in vivo, Galium aparine; details: Preemergence
Outline: (§1)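 Test chemicals in a non-phytotoxic solvent mixture with surfactant were sprayed preemergence onto planted seeds and postemergence onto plants 2 to 18 cm tall (1- to 4-leaf stage). After twelve to sixteen days in a greenhouse, injury was visually rated against untreated controls from 0 (no effect) to 10 (complete control).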

[2] = system: duck salad; experiment: Test B flood test duck salad; type: in vivo, Heteranthera limosa
Outline: (§2)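 Read-out is a visual response score from 0 (no effect) to 10 (complete control), assigned by comparison with untreated controls. Treatment was applied at the 2-leaf stage, and plants stayed in the greenhouse for twelve to sixteen days before scoring.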

[3] = system: wheat; experiment: Test B pre/postemergence wheat; type: in vivo, Triticum aestivum
Outline: as §1

[4] = system: giant foxtail; experiment: Test B pre/postemergence giant foxtail; type: in vivo, Setaria faberii
Outline: as §1

[5] = system: pigweed; experiment: Test B pre/postemergence pigweed; type: in vivo, Amaranthus retroflexus
Outline: as §1

[6] = system: bamyardgrass; experiment: Test B flood test barnyardgrass; type: in vivo, Echinochloa crus-galli
Outline: as §2

[7] = system: rape; experiment: Test B pre/postemergence rape; type: in vivo, Brassica napus
Outline: as §1

[8] = system: purple nutsedge; experiment: Test B pre/postemergence purple nutsedge; type: in vivo, Cyperus rotundus
Outline: as §1

[9] = system: corn; experiment: Test B pre/postemergence corn; type: in vivo, Zea mays
Outline: as §1

[10] = system: velvetleaf; experiment: Test B pre/postemergence velvetleaf; type: in vivo, Abutilon theophrasti
Outline: as §1

[11] = system: sugar beet; experiment: Test B pre/postemergence sugar beet; type: in vivo, Beta vulgaris
Outline: as §1

[12] = system: soybean; experiment: Test B pre/postemergence soybean; type: in vivo, Glycine max
Outline: as §1

[13] = system: smallflower flatsedge; experiment: Test B flood test smallflower flatsedge; type: in vivo, Cyperus difformis
Outline: as §2

[14] = system: crabgrass; experiment: Test B pre/postemergence crabgrass; type: in vivo, Digitaria sanguinalis
Outline: as §1

[15] = system: blackgrass; experiment: Test B pre/postemergence blackgrass; type: in vivo, Alopecurus myosuroides
Outline: as §1

[16] = system: rice; experiment: Test B flood test rice; type: in vivo, Oryza sativa
Outline: as §2

[17] = system: morningglory; experiment: Test B pre/postemergence morningglory; type: in vivo, Ipomoea hederacea
Outline: as §1

[18] = system: cocklebur; experiment: Test B pre/postemergence cocklebur; type: in vivo, Xanthium strumarium
Outline: as §1

[19] = system: surinam grass; experiment: Test B pre/postemergence surinam grass; type: in vivo, Brachiaria decumbens
Outline: as §1

[20] = system: wild oat; experiment: Test B pre/postemergence wild oat; type: in vivo, Avena fatua
Outline: as §1

[21] = Rate 31 g/ha, Pre-emergence section (flood test species), scale 0 to 10
[22] = Rate 62 g/ha, flood test species, Pre-emergence, visual evaluation after twelve to sixteen days
[23] = Rate 125 g/ha, under heading Pre-emergence, flood test species, visual evaluation after twelve to sixteen days
[24] = Rate 250 g/ha, Pre-emergence, flood-test species, scale 0 to 10, 0 is no effect, 10 is complete control
[25] = Postemergence, Rate 31 g/ha, visual rating, scale 0 to 10 (0 no effect, 10 complete control)
[26] = Preemergence, Rate 62 g/ha, scale 0 to 10 (0 no effect, 10 complete control)
[27] = Preemergence, Rate 125 g/ha, scale of 0 to 10 where 0 is no effect and 10 is complete control
[28] = Preemergence, Rate 250 g/ha, scale of 0 to 10 where 0 is no effect and 10 is complete control
[29] = Rate 62 g/ha, Postemergence, scale of 0 to 10 where 0 is no effect and 10 is complete control
[30] = Postemergence, Rate 125 g/ha, scale 0 to 10, 0 is no effect, 10 is complete control
[31] = Postemergence, Rate 250 g/ha, scale 0 to 10, 0 is no effect, 10 is complete control
[32] = Preemergence, Rate 31 g/ha, visual rating, scale 0 to 10 (0 no effect, 10 complete control)

CC(C)N(C(=O)n1oc(=O)n([C@@H]2C[C@H]2C)c1=O)c1ccc(F)cc1 (relative stereo) [Compound 392]
0: Bedstraw plant response rating ([1]; Rate 31 g/ha, visual rating, scale 0 to 10 (0 no effect, 10 complete control)) | Ducksalad plant response rating [2, 21] | Plant response rating, Ducksalad (0 to 10 scale, 0 is no effect, 10 is complete control) [2, 22] | Ducksalad plant response rating (0 to 10 scale, 0 is no effect, 10 is complete control) [2, 23] | Ducksalad plant response rating [2, 24] | Wheat plant response rating [3, 25] | Plant response rating, Wheat [3, 26] | Wheat plant response rating [3, 29] | Redroot pigweed plant response rating [5, 25] | Redroot pigweed plant response rating [5, 29] | Barnyardgrass plant response rating [6, 21] | Plant response rating, Barnyardgrass (0 to 10 scale, 0 is no effect, 10 is complete control) [6, 22] | Barnyardgrass plant response rating (0 to 10 scale, 0 is no effect, 10 is complete control) [6, 23] | Barnyardgrass plant response rating [6, 24] | Rape plant response rating [7, 25] | Plant response rating, Rape [7, 31] | Plant response rating, Rape [7, 26] | Plant response rating, Rape [7, 27] | Rape plant response rating [7, 29] | Nutsedge plant response rating [8, 25] | Plant response rating, Nutsedge [8, 31] | Plant response rating, Nutsedge [8, 26] | Plant response rating, Nutsedge [8, 27] | Nutsedge plant response rating [8, 28] | Nutsedge plant response rating [8, 29] | Corn plant response rating [9, 25] | Plant response rating, Corn [9, 30] | Plant response rating, Corn [9, 31] | Corn plant response rating [9, 32] | Plant response rating, Corn [9, 26] | Corn plant response rating [9, 29] | Velvetleaf plant response rating [10, 25] | Plant response rating, Velvetleaf [10, 26] | Velvetleaf plant response rating [10, 29] | Sugarbeets plant response rating [11, 25] | Plant response rating, Sugarbeets [11, 31] | Plant response rating, Sugarbeets [11, 26] | Sugarbeets plant response rating [11, 29] | Plant response rating, Soybean [12, 26] | Plant response rating, Soybean [12, 27] | Soybean plant response rating [12, 28] | S. Flatsedge plant response rating [13, 21] | Plant response rating, S. Flatsedge (0 to 10 scale, 0 is no effect, 10 is complete control) [13, 22] | S. Flatsedge plant response rating (0 to 10 scale, 0 is no effect, 10 is complete control) [13, 23] | S. Flatsedge plant response rating [13, 24] | Rice plant response rating [16, 21] | Plant response rating, Rice (0 to 10 scale, 0 is no effect, 10 is complete control) [16, 22] | Rice plant response rating (0 to 10 scale, 0 is no effect, 10 is complete control) [16, 23] | Rice plant response rating [16, 24] | Plant response rating, Morningglory [17, 26] | Plant response rating, Morningglory [17, 27] | Morningglory plant response rating [17, 28] | Cocklebur plant response rating [18, 25] | Cocklebur plant response rating [18, 32] | Plant response rating, Cocklebur [18, 26] | Plant response rating, Cocklebur [18, 27] | Cocklebur plant response rating [18, 28] | Cocklebur plant response rating [18, 29] | B. signalgrass plant response rating [19, 25] | B. signalgrass plant response rating [19, 32] | Wild oats plant response rating [20, 25] | Wild oats plant response rating [20, 29]
7: Giant foxtail plant response rating [4, 25] | Giant foxtail plant response rating [4, 29] | Plant response rating, Redroot pigweed [5, 27] | Sugarbeets plant response rating [11, 28] | Plant response rating, Crabgrass [14, 31] | Blackgrass plant response rating [15, 25] | Blackgrass plant response rating [15, 29] | Plant response rating, Morningglory [17, 31] | Plant response rating, B. signalgrass [19, 31]
8: Plant response rating, Bedstraw ([1]; Rate 125 g/ha, scale of 0 to 10 where 0 is no effect and 10 is complete control) | Wheat plant response rating [3, 28] | Crabgrass plant response rating [14, 32] | Plant response rating, Blackgrass [15, 27]
2: Plant response rating, Redroot pigweed [5, 26] | Plant response rating, Velvetleaf [10, 31] | Plant response rating, Soybean [12, 31] | Plant response rating, Crabgrass [14, 30] | Crabgrass plant response rating [14, 29] | Blackgrass plant response rating [15, 32] | Plant response rating, Cocklebur [18, 30] | Plant response rating, Cocklebur [18, 31] | Plant response rating, B. signalgrass [19, 26] | Plant response rating, Wild oats [20, 26]
9: Plant response rating, Giant foxtail [4, 30] | Plant response rating, Giant foxtail [4, 31] | Corn plant response rating [9, 28] | B. signalgrass plant response rating [19, 28] | Plant response rating, Wild oats [20, 27]
10: Bedstraw plant response rating ([1]; Rate 250 g/ha, scale of 0 to 10 where 0 is no effect and 10 is complete control) | Giant foxtail plant response rating [4, 32] | Plant response rating, Giant foxtail [4, 26] | Plant response rating, Giant foxtail [4, 27] | Giant foxtail plant response rating [4, 28] | Redroot pigweed plant response rating [5, 28] | Plant response rating, Crabgrass [14, 26] | Plant response rating, Crabgrass [14, 27] | Crabgrass plant response rating [14, 28] | Plant response rating, Blackgrass [15, 30] | Plant response rating, Blackgrass [15, 31] | Blackgrass plant response rating [15, 28] | Wild oats plant response rating [20, 28]
1: Soybean plant response rating [12, 25] | Soybean plant response rating [12, 29] | Crabgrass plant response rating [14, 25] | B. signalgrass plant response rating [19, 29]
5: Rape plant response rating [7, 28] | Velvetleaf plant response rating [10, 28] | Morningglory plant response rating [17, 29] | Plant response rating, B. signalgrass [19, 30]
3: Plant response rating, Wheat [3, 27] | Plant response rating, Corn [9, 27] | Plant response rating, Velvetleaf [10, 27] | Plant response rating, Sugarbeets [11, 27] | Morningglory plant response rating [17, 25] | Plant response rating, B. signalgrass [19, 27]
6: Plant response rating, Redroot pigweed [5, 31] | Plant response rating, Blackgrass [15, 26]
